Measured values published in publication PMC7496286, “The Selectivity of Fosfosal for STAT5b over STAT5a is Mediated by Arg566 in the Linker Domain” (Chembiochem, 2020).
Substitutions are numbered along the chain they refer to.

What was measured:
[1] = molecular target: T1, STAT5b Arg566Trp (Homo sapiens, UniProt P51692, R566W); assay: FP-based competitive binding assay, STAT5b Arg566Trp
T1 construct: His; made in house
T1 sequence (P51692 1-787 R566W): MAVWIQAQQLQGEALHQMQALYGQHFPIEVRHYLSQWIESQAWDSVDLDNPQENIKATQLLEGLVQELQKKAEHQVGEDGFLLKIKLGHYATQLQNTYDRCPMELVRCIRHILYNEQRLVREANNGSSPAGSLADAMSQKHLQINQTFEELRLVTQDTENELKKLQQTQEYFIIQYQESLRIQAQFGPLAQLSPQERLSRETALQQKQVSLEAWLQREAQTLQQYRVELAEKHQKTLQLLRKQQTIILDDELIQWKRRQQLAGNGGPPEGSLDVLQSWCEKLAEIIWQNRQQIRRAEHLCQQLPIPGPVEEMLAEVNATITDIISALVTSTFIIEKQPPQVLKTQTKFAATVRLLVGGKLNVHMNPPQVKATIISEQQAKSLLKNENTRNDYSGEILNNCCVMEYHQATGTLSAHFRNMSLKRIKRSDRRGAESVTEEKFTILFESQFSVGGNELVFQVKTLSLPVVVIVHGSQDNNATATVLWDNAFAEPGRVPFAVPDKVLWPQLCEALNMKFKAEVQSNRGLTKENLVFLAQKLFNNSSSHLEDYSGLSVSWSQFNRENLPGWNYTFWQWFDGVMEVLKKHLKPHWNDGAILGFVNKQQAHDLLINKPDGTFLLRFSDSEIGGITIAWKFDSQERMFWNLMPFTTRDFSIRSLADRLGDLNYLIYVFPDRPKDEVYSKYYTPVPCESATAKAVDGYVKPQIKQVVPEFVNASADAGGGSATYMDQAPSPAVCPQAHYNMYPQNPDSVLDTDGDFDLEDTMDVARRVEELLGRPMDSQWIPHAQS
Experimental: (§1) Fluorescence polarization assays
(§2) The ability of test compounds to displace 5-carboxyfluorescein-GY(PO3H2)LVLDKW (final concentration: 10 nM) from the SH2 domain of STAT5a/b proteins was analyzed. Proteins […]
(§3) was applied in dilution series comprising the following concentrations: 0.024 – 200 µM […]
(§4) and 0.146 – 600 µM (STAT5b Arg566Glu), respectively. The assays were performed in buffer containing 10 mM Tris, 50 mM NaCl, 1 mM DTT, 1 mM EDTA and 0.1% (v/v) NP-40. Fosfosal was dissolved in DMSO. STAT5a/b proteins and fosfosal were incubated at room temperature for 1 h before adding peptide. Samples were transferred to 384-well microtiter plates and fluorescence polarization was read after a further 1 h incubation time. All measurements were performed in triplicate (n=3), except for STAT5b (n=6) and STAT5a Trp566Arg (n=4). Percent binding was calculated based on a logarithmic curve fit using OriginPro 8G software. IC50 values were converted to Ki values using the published equation.[4] […]
(§5) [4] Z. Nikolovska-Coleska, R. Wang, X. Fang, H. Pan, Y. Tomita, P. Li, P. P. Roller, K.
(§6) Krajewski, N. G. Saito, J. A. Stuckey, S. Wang, Anal. Biochem. 2004, 332, 261-273.

[2] = molecular target: T2, STAT5b Arg566Ala (Homo sapiens, UniProt P51692, R566A); assay: FP-based competitive binding assay, STAT5b Arg566Ala
T2 construct: His; made in house
T2 sequence (P51692 1-787 R566A): T1 sequence (P51692 1-787 R566W) with W566A
Experimental: as §1, §2, §3, §4, §5, §6

[3] = molecular target: T3, STAT5b Arg566Glu (Homo sapiens, UniProt P51692, R566E); assay: FP-based competitive binding assay, STAT5b Arg566Glu
T3 construct: His; made in house
T3 sequence (P51692 1-787 R566E): T1 sequence (P51692 1-787 R566W) with W566E
Experimental: as §1, §2, §3, §4

Row | SMILES | Kd [1] | Kd [2] | Kd [3] | inhibition at 600 µM ([1]; STAT5b Arg566Trp, 600 μM, the highest concentration tested) | inhibition at 600 µM ([2]; STAT5b Arg566Ala, 600 μM) | % inhibition at 600 μM ([3]; STAT5b Arg566Glu, up to 600 μM)
1 | CC(C)C[C@H](NC(=O)[C@H](Cc1ccc(OP(=O)(O)O)cc1)NC(=O)CNC(=O)c1ccc2c(c1)C(=O)OC21c2ccc(O)cc2Oc2cc(O)ccc21)C(=O)N[C@H](C(=O)N[C@@H](CC(C)C)C(=O)N[C@@H](CC(=O)O)C(=O)N[C@@H](CCCCN)C(=O)N[C@@H](Cc1c[nH]c2ccccc12)C(=O)O)C(C)C [5-carboxyfluorescein-GY(PO3H2)LVLDKW] | 289 nM | 567 nM | 2000 nM | – | – | –
2 | O=C(O)c1ccccc1OP(=O)(O)O [fosfosal, O‐phosphorylated salicylic acid] | – | – | – | 24 ± 2% | 22 ± 3% | no inhibition
